Measured values reported in patent publication US20170065593A1, “Combination” (Novartis AG, priority 2009, published 2017).

Test system: 95 cancer cell lines
Protocol: (Compound A) or mTOR inhibitor (mTORi, Rapamycin) alone or a combination of both agents at a ratio of 1:2 (MEKi:mTORi) and cell proliferation/death was measured after 3 day drug exposure. Briefly, cells were plated in 384-well plates at 500 cells/well in culture media appropriate for each cell type, supplemented with 10% FBS and 1% penicillin/streptomycin, and incubated overnight at 37° C., 5% CO2. […] (two fold dilutions ranging from 7.3 uM-0.014 nM) or with mTOR inhibitor (two fold dilutions ranging from 14.6 uM-0.112 nM) or in combination with both compounds and incubated for 72 hours. Cell growth was measured using the CellTiterGlo (CTG) reagent (Promega) according to the manufacturer's protocol. Data were analyzed using the XLfit (IDBS Ltd.) curve-fitting tool for Microsoft Excel. Growth IC50 (gIC50) and Ymin values were generated using a four-parameter curve fit algorithm (XLFit algorithm #205).
Results were expressed as a percent of the t=0 and plotted against the compound concentration. The T=0 value is normalized to 100% and represents the number of cells at the time of compound addition. […] Formula below was used to calculate mutually exclusive combination index (CI). Data were reported as log CI, where the logarithm value of CI was calculated.
CI=IC50 of a+b/IC50 of a+IC50 of b+a/IC50 of b
Synergy is defined as CI<1, additivity as CI=1 and antagonism as CI>1. Considering the variability of these proliferation assays we arbitrarily defined log CI>0.1 as antagonism, between −0.1 and 0.1 as no significant effect and <−0.1 as synergy.

Substance: N-{3-[3-cyclopropyl-5-(2-fluoro-4-iodo-phenylamino)6,8-dimethyl;-2,4,7-trioxo-3,4,6,7-tetrahydro-2H-pyrido[4,3-d]pyrimidin-1-yl]phenyl}acetamide [Compound A]
- percentage of cell undergoing death (cytotoxic): 20%
- cell lines undergoing death (independent of the KRAS status): > 20%
